# Measurements as given in patent US10654788B2, “Method for synthesizing novel compounds derived from 3-hydroxy-cyclopentyl acetic acid” (L'OREAL, priority 2015, dated 2020).
# Legend:
# TGM1 transcripts = experiment: Expression of TGM1 transcripts in keratinocytes (RT-qPCR); format: cell-based; conditions: human epidermal keratinocytes
# Protocol: (§1) The influence of compound 5, in particular obtained according to the preparation process described in example 1 above, on the epidermal renewal and the barrier effect of the skin was evaluated in vitro by measuring the expression of the TGM1 and TGM3 transcripts in keratinocytes.
# (§2) Human epidermal keratinocytes were incubated for 24 hours in the presence or absence (control) of the compound to be tested. At the end of the incubation, the total RNAs were extracted and then quantified. The expression of the TGM1 and TGM3 transcripts was then measured by means of a 2-step RT-qPCR method by means of a LightCycler® 480 system and according to the SYBR® Green (Qiagen) incorporation technique. The expression of these transcripts was standardized relative to the expression of 2 housekeeping genes, RPL13A and GAPDH. The experiment was reproduced 3 times (N=3).
# (§3) The results are expressed as fold change (fc) relative to the control.
# TGM3 transcripts = experiment: Expression of TGM3 transcripts in keratinocytes (RT-qPCR); format: cell-based; conditions: human epidermal keratinocytes
# Protocol: as §1, §2, §3
# [1] = 24 hours incubation, 100 μm, standardized to RPL13A and GAPDH, N=3
compound,measurement,setting,value
CCCCCCCCC1C(O)CCC1CC(=O)O (stereo not shown) [Compound 5],expression of the TGM1 transcripts (class in words),TGM1 transcripts; 24 hours,moderately stimulated
same,"TGM1 transcript expression, fold change (fc) relative to the control",TGM1 transcripts; [1],1.9 fc
same,expression of the TGM3 transcripts (class in words),TGM3 transcripts; 24 hours,moderately stimulated
same,"TGM3 transcript expression, fold change (fc) relative to the control",TGM3 transcripts; [1],1.8 fc
